Residues, ends and D or L forms follow the SMILES beside them.
Assays:
[1] = Stability in simulated gastric fluid; assay type: in vitro ADME; conditions: pH 1.6
[2] = Stability in simulated intestinal fluid; assay type: in vitro ADME; conditions: pH 6.5
[3] = Stability in human plasma; assay type: in vitro ADME
[4] = LogD7.4 by miniaturized shake-flask procedure; assay type: physicochemical; conditions: miniaturized shake-flask procedure at pH 7.4
[5] = Caco-2 cell permeability; assay type: in vitro ADME
[6] = Stability in rat liver microsomes; assay type: in vitro ADME
[7] = reference compound; cited from earlier work
[8] = reference compound; cited from earlier work; remark: listed apart in the source

Work on `N=C(N)NCCC[C@@H]1NC(=O)CNC(=O)CNC(=O)[C@H](Cc2c[nH]cn2)NC(=O)CNC(=O)CNC(=O)[C@H](Cc2c[nH]c3ccccc23)NC(=O)[C@H](Cc2c[nH]c3ccccc23)NC(=O)CNC(=O)[C@H](CCCCN)NC(=O)CNC(=O)[C@H](CO)NC(=O)CNC(=O)CNC(=O)[C@H](Cc2c[nH]c3ccccc23)NC1=O` [SP4] (cyclo(GGHGGRWGGSGKGWW)) yielded a half-life [1] of 1.8 h, a half-life [2] of 7.6 h and a remaining at 1 h [3] of 89.4%. For the same molecule, the LogD7.4 [4] was 0.86, the Papp A→B [5] was 1.78 ×10⁻⁶ cm/s and the Papp B→A [5] was 2.15 ×10⁻⁶ cm/s. The efflux ratio [5] was about 1.2 and the half-life [6] was 4.7 h.
For `CC[C@H]1OC(=O)[C@H](C)[C@@H](O[C@H]2C[C@@](C)(OC)[C@@H](O)[C@H](C)O2)[C@H](C)[C@@H](O[C@@H]2O[C@H](C)C[C@H](N(C)C)[C@H]2O)[C@](C)(O)C[C@@H](C)C(=O)[C@H](C)[C@@H](O)[C@]1(C)O` [erythromycin], the “Stability in intestinal simulated fluids (t1/2)” value [7] is given as 7.55 h.
For `CC(C)[N+](C)(CCOC(=O)C1c2ccccc2Oc2ccccc21)C(C)C` [propantheline], the “Human plasma stability (t1/2)” value [8] is listed as 2.6 min.
